Data taken from patent US6833368B2, “1, 2, 5, 10-tetrahydropyridazino[4, 5-b]quinoline-1,10-diones and their use for the treatment of pain” (AstraZeneca AB, priority 2000, dated 2004).
pKi: −log10 of the molar value.

Key:
[1] = target: T1, NMDA receptor glycine site (Rattus norvegicus, UniProt P35439); test: Test A: Inhibition of binding of [3H]-MDL105,519 to brain membranes; conditions: inhibition of 1.2 nM [3H]MDL105,519 binding to brain membranes; rat or human membranes not specified
T1 construct: The rat brain membranes used in the experiments were obtained from Analytical Biological Services Inc; tissue Analytical Biological Services Inc; host or cells: rat brain membranes (cerebral cortex and hippocampus, Sprague Dawley)
Experimental: Test A: Inhibition of Binding of [^3H]-MDL105,519:
Binding of compounds to the NMDA receptor glycine site may be assessed by measuring the ability of test compounds to inhibit the binding of tritiated MDL105,519 to brain membranes bearing the receptor.
Rat Brain Membranes: The rat brain membranes used in the experiments were obtained from Analytical Biological Services Inc., and were prepared substantially in accordance with the method of B. M. Baron et al., J. Pharmacol. Exp. Ther. 250, 162 (1989). Briefly, fresh brain tissue including cerebral cortex and hippocampus from […] Sprague Dawley rats was homogenized in 0.32 M sucrose and centrifuged at low speed to separate cellular membranes from other cellular components. The membranes were then washed 3 times using deionized water, followed by treatment with 0.04% Triton X-100. Finally, membranes were washed six times in 50 mM Tris citrate buffer, pH 7.4, and frozen at −80° C. until use.
[^3H]MDL105,519 (72 Ci/mmol) was purchased from Amersham. Cold MDL105,519 was purchased from Sigma/RBI. Binding assays were performed substantially in accordance with the protocol of B. M. Baron et al., J. Pharmacol. Exp. Ther. 279, 62 (1996), as follows. On the day of the experiment, brain membranes were thawed at room temperature and suspended in 50 mM tris acetate buffer, pH 7.4 (“TAB”). Seventy-five micro grams per milliliter protein (by using the BioRad dye) were used for competition binding. The experiments were carried out using 96-well plates. Membranes were incubated with 20 μL of compounds of various concentrations and 1.2 nM [^3H]MDL105,519 for 30 minutes at room temperature in a total volume of 250 μL. Non specific binding was determined by using 100 μM of unlabeled MDL105,519. The unlabeled MDL105,519 and compounds were dissolved as 12.5 mM stock solutions in DMSO. Final DMSO concentration in each well was kept below 1%, which concentration was found not to alter the binding results. After incubation, unbound [^3H]MDL105,519 was removed by filtration onto GF/B Unifilter plates using a Packard harvester. Filters were washed four times with ice cold TAB (total of 1.2 mL buffer). The plates were dried overnight at room temperature and bound radioactivity was measured on a Packard TopCount after the addition of 45 μL per well of the MICROSCINT O.
Human Brain Membranes: Human brain membranes were obtained from Analytical Biological Services Inc., and assays were performed as described for rat membranes.
Data analysis: Data was analyzed using a Microsoft Excel spreadsheet and GraphPad Prizm software and potency of compounds is expressed as the Ki (nM).

[2] = tested on: CCI rats (thermal hyperalgesia); conditions: oral, three times daily for 5 days

pKi [1] | melting point | SMILES | Test C % Inh. (percent decrease of hyperalgesia at MED) ([2]; at the MED, versus vehicle-treated animals) | Test C MED (minimum effective dose) ([2]; dose giving statistically significant decrease in hyperalgesia)
6.25 | > 300 °C | O=c1c2ccc(Cl)cc2[nH]c2c(O)nn(C3CCOc4ccccc43)c(=O)c12 (racemic) [Ex. 2, (+/−)-7-Chloro-4-hydroxy-2-(chroman-4-yl)-1,2,5,10-tetrahydropyridazino[4.5-b]quinoline-1.10-dione] | – | –
6.29 | > 300 °C | O=c1c2ccc(Cl)cc2[nH]c2c(O)nn(C3CCCc4sccc43)c(=O)c12 (racemic) [Ex. 3, (+/−)-7-Chloro-4-hydroxy-2-(4,5,6,7-tetrahydrobenzo[b]thien-4-yl)-1,2,5,10-tetrahydropyridazino[4,5-b]quinoline-1.10-dione] | – | –
6.14 | > 300 °C | O=c1c2ccc(Cl)cc2[nH]c2c(O)nn(C3CCCc4ccccc43)c(=O)c12 (racemic) [Ex. 4, (+/−)-7-Chloro-4-hydroxy-2-(1,2,3,4-tetrahydronaphth-1-yl)-1.2,5,10-tetrahydropyridazino[4,5-b]quinoline-1,10-dione] | – | –

SMILES | pKi [1] | melting point | Test C % Inh. (percent decrease of hyperalgesia at MED) ([2]; at the MED, versus vehicle-treated animals) | Test C MED (minimum effective dose) ([2]; dose giving statistically significant decrease in hyperalgesia)
O=c1c2ccc(Cl)cc2[nH]c2c(O)nn(C3CCSc4ccccc43)c(=O)c12 (racemic) [Ex. 1, (+/−)-7-chloro-4-hydroxy-2-(2H,3H,4H-Benzo[e]thian-4-yl)-1,2,5,10-tetrahydropyridazino[4,5-b]quinoline-1,10-dione] | 6.39 | – | 56% | 30 mg/kg/day
